# Source: PubChem BioAssay AID1963826 (Molecular Pharmacology Branch, DTP, NCI, 2024)
# pIC50: −log10 of the molar value.
# Tested on: 926638-142-R-J1-PDC complex spheroid viability
# Experiment: Anticancer human tumor 926638-142-R-J1-PDC patient-derived endometrial carcinoma cell line growth inhibition [POLQ]
# Details: for pIC50: curve of first compound; for viability, T/C: stronger effect = lower value
# In short: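 Patient-derived tumour cells were co-cultured with HUVEC and mesenchymal stem cells as multicellular spheroids at 37 °C. They were treated with POLQ inhibitors (novobiocin, ART-558, RP6685) alone or combined with other agents. Top concentrations were at or near clinical Cmax (otherwise 10 microM; SN-38 at 1 microM), decreasing in half-log steps.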
# [1] = second compound 0.0316 µM, first compound 0.00316 µM
# [2] = second compound 0.0316 µM, first compound 0.01 µM
# [3] = second compound 0.0316 µM, first compound 0.0316 µM
# [4] = second compound 0.0316 µM, first compound 0.1 µM
# [5] = second compound 0.0316 µM, first compound 0.316 µM
# [6] = second compound 0.0316 µM, first compound 1 µM
# [7] = second compound 0.1 µM, first compound 0.00316 µM
# [8] = second compound 0.1 µM, first compound 0.01 µM
# [9] = second compound 0.1 µM, first compound 0.0316 µM
# [10] = second compound 0.1 µM, first compound 0.1 µM
# [11] = second compound 0.1 µM, first compound 0.316 µM
# [12] = second compound 0.1 µM, first compound 1 µM
# [13] = second compound 0.316 µM, first compound 0.00316 µM
# [14] = second compound 0.316 µM, first compound 0.01 µM
# [15] = second compound 0.316 µM, first compound 0.0316 µM
# [16] = second compound 0.316 µM, first compound 0.1 µM
# [17] = second compound 0.316 µM, first compound 0.316 µM
# [18] = second compound 0.316 µM, first compound 1 µM
# [19] = second compound 1 µM, first compound 0.00316 µM
# [20] = second compound 1 µM, first compound 0.01 µM
# [21] = second compound 1 µM, first compound 0.0316 µM
# [22] = second compound 1 µM, first compound 0.1 µM
# [23] = second compound 1 µM, first compound 0.316 µM
# [24] = second compound 1 µM, first compound 1 µM
# [25] = second compound 3.16 µM, first compound 0.00316 µM
# [26] = second compound 3.16 µM, first compound 0.01 µM
# [27] = second compound 3.16 µM, first compound 0.0316 µM
# [28] = second compound 3.16 µM, first compound 0.1 µM
# [29] = second compound 3.16 µM, first compound 0.316 µM
# [30] = second compound 3.16 µM, first compound 1 µM
# [31] = second compound 10 µM, first compound 0.00316 µM
# [32] = second compound 10 µM, first compound 0.01 µM
# [33] = second compound 10 µM, first compound 0.0316 µM
# [34] = second compound 10 µM, first compound 0.1 µM
# [35] = second compound 10 µM, first compound 0.316 µM
# [36] = second compound 10 µM, first compound 1 µM
# 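Further: spheroids exposed to drugs for one week before readout.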
# 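Wherever viability, T/C is given: percent viability relative to DMSO vehicle control wells set as 100%.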
smiles,measurement,setting,value
C=CCn1c(=O)c2cnc(Nc3ccc(N4CCN(C)CC4)cc3)nc2n1-c1cccc(C(C)(C)O)n1 + Cc1cccc(N(C)C(=O)C2C(O)CCN2c2nc(C)cc(C(F)(F)F)c2C#N)c1,pIC50,second compound 0.0316 µM,6.41
same,pIC50,second compound 0.1 µM,6.15
same,pIC50,second compound 0.316 µM,6.49
same,pIC50,second compound 1 µM,6.20
same,pIC50,second compound 3.16 µM,6.43
same,pIC50,second compound 10 µM,6.56
same,"viability, T/C",[1],92%
same,"viability, T/C",[2],80.1%
same,"viability, T/C",[3],90%
same,"viability, T/C",[4],64.9%
same,"viability, T/C",[5],55.6%
same,"viability, T/C",[6],34%
same,"viability, T/C",[7],106%
same,"viability, T/C",[8],98.3%
same,"viability, T/C",[9],88.7%
same,"viability, T/C",[10],77.2%
same,"viability, T/C",[11],57.8%
same,"viability, T/C",[12],46.6%
same,"viability, T/C",[13],102%
same,"viability, T/C",[14],94.4%
same,"viability, T/C",[15],71.6%
same,"viability, T/C",[16],61.2%
same,"viability, T/C",[17],54.7%
same,"viability, T/C",[18],37%
same,"viability, T/C",[19],109%
same,"viability, T/C",[20],91.5%
same,"viability, T/C",[21],76.1%
same,"viability, T/C",[22],81.1%
same,"viability, T/C",[23],60.8%
same,"viability, T/C",[24],40.8%
same,"viability, T/C",[25],87.7%
same,"viability, T/C",[26],99.6%
same,"viability, T/C",[27],81.2%
same,"viability, T/C",[28],78.8%
same,"viability, T/C",[29],51.1%
same,"viability, T/C",[30],36.9%
same,"viability, T/C",[31],79.5%
same,"viability, T/C",[32],78.9%
same,"viability, T/C",[33],72.8%
same,"viability, T/C",[34],76.2%
same,"viability, T/C",[35],46.5%
same,"viability, T/C",[36],37.7%
CC[C@@]1(O)C(=O)OCc2c1cc1n(c2=O)Cc2cc3c(CN(C)C)c(O)ccc3nc2-1 + Cc1cccc(N(C)C(=O)C2C(O)CCN2c2nc(C)cc(C(F)(F)F)c2C#N)c1,pIC50,second compound 0.0316 µM,7.16
same,pIC50,second compound 0.1 µM,7.13
same,pIC50,second compound 0.316 µM,7.13
same,pIC50,second compound 1 µM,< 7.00
same,pIC50,second compound 3.16 µM,< 7.00
same,pIC50,second compound 10 µM,< 7.00
same,"viability, T/C","second compound 0.0316 µM, first compound 0.000316 µM",100%
same,"viability, T/C","second compound 0.0316 µM, first compound 0.001 µM",91.2%
same,"viability, T/C",[1],74.6%
same,"viability, T/C",[2],70.4%
same,"viability, T/C",[3],63.1%
same,"viability, T/C",[4],43.4%
same,"viability, T/C","second compound 0.1 µM, first compound 0.000316 µM",86.4%
same,"viability, T/C","second compound 0.1 µM, first compound 0.001 µM",94.6%
same,"viability, T/C",[7],87.9%
same,"viability, T/C",[8],76.8%
same,"viability, T/C",[9],64.7%
same,"viability, T/C",[10],45.2%
same,"viability, T/C","second compound 0.316 µM, first compound 0.000316 µM",94.3%
same,"viability, T/C","second compound 0.316 µM, first compound 0.001 µM",88.9%
same,"viability, T/C",[13],70.4%
same,"viability, T/C",[14],76.3%
same,"viability, T/C",[15],57.4%
same,"viability, T/C",[16],46.3%
same,"viability, T/C","second compound 1 µM, first compound 0.000316 µM",93.7%
same,"viability, T/C","second compound 1 µM, first compound 0.001 µM",74%
same,"viability, T/C",[19],88.8%
same,"viability, T/C",[20],68.3%
same,"viability, T/C",[21],68%
same,"viability, T/C",[22],50.4%
same,"viability, T/C","second compound 3.16 µM, first compound 0.000316 µM",78.3%
same,"viability, T/C","second compound 3.16 µM, first compound 0.001 µM",99%
same,"viability, T/C",[25],80.7%
same,"viability, T/C",[26],63%
same,"viability, T/C",[27],61.2%
same,"viability, T/C",[28],47%
same,"viability, T/C","second compound 10 µM, first compound 0.000316 µM",97.9%
same,"viability, T/C","second compound 10 µM, first compound 0.001 µM",71.1%
same,"viability, T/C",[31],75.7%
same,"viability, T/C",[32],68%
same,"viability, T/C",[33],62.2%
same,"viability, T/C",[34],47.5%
CCc1c2c(nc3ccc(O)cc13)-c1cc3c(c(=O)n1C2)COC(=O)[C@]3(O)CC + Cc1cccc(N(C)C(=O)C2C(O)CCN2c2nc(C)cc(C(F)(F)F)c2C#N)c1,pIC50,second compound 0.0316 µM,8.21
same,pIC50,second compound 0.1 µM,7.92
same,pIC50,second compound 0.316 µM,7.92
same,pIC50,second compound 1 µM,8.01
same,pIC50,second compound 3.16 µM,7.91
same,pIC50,second compound 10 µM,7.97
same,"viability, T/C",[1],55.6%
same,"viability, T/C",[2],43.5%
same,"viability, T/C",[3],38%
same,"viability, T/C",[4],17.1%
same,"viability, T/C",[5],11.1%
same,"viability, T/C",[6],5.47%
same,"viability, T/C",[7],75.3%
same,"viability, T/C",[8],51.9%
same,"viability, T/C",[9],35.1%
same,"viability, T/C",[10],17.8%
same,"viability, T/C",[11],9.35%
same,"viability, T/C",[12],4.26%
same,"viability, T/C",[13],69.8%
same,"viability, T/C",[14],52.8%
same,"viability, T/C",[15],35.6%
same,"viability, T/C",[16],19.3%
same,"viability, T/C",[17],12.3%
same,"viability, T/C",[18],4.42%
same,"viability, T/C",[19],69.6%
same,"viability, T/C",[20],50.9%
same,"viability, T/C",[21],29.8%
same,"viability, T/C",[22],17%
same,"viability, T/C",[23],13.9%
same,"viability, T/C",[24],4.44%
same,"viability, T/C",[25],62.8%
same,"viability, T/C",[26],54%
same,"viability, T/C",[27],35.1%
same,"viability, T/C",[28],21.1%
same,"viability, T/C",[29],9.95%
same,"viability, T/C",[30],5.61%
same,"viability, T/C",[31],69.4%
same,"viability, T/C",[32],50.5%
same,"viability, T/C",[33],34.6%
same,"viability, T/C",[34],22.5%
same,"viability, T/C",[35],10.4%
same,"viability, T/C",[36],4.3%
